Experimental data from BindingDB's records for doi:10.1016/j.bmc.2013.02.037 (Chungnam National University, 2013).

Experiment: Inhibition interleukin-5 in mouse Y16 cells after 48 hrs by WST-1 assay

`CC(C)(C)c1ccc(C(=O)CCc2coc3cccc(OCC4CCCCC4)c3c2=O)cc1` and `Cc1ccc(C(=O)CCc2coc3cccc(OCC4CCCCC4)c3c2=O)cc1` cannot be ordered by IC50: > 30 µM for the first, > 30 µM for the second.

Going from `O=c1c(CCC(O)c2ccc3ccccc3c2)coc2cccc(OCC3CCCCC3)c12` (centres undefined) to `O=C(CCc1coc2cccc(OCC3CCCCC3)c2c1=O)c1ccc2ccccc2c1`, the IC50 rises from 17 µM to > 30 µM. The first is the more potent here.

`O=C(CCc1coc2cccc(OCC3CCCCC3)c2c1=O)c1ccc(O)cc1` and `O=C(CCc1coc2cccc(OCC3CCCCC3)c2c1=O)c1ccc(F)cc1` are within 1.5-fold of each other in IC50: 15 µM for the first, 20 µM for the second.

`O=c1c(CCC(O)c2ccccc2)coc2cccc(OCC3CCCCC3)c12` (centres undefined) and `O=c1c(CCC(O)c2ccc(Cl)cc2)coc2cccc(OCC3CCCCC3)c12` (centres undefined) are within 1.5-fold of each other in IC50: 12 µM for the first, 9 µM for the second.

`O=C(CCC1COc2cccc(OCC3CCCCC3)c2C1=O)c1ccc(Cl)c(Cl)c1` (centres undefined) and `COc1ccc(C(=O)CCC2COc3cccc(OCC4CCCCC4)c3C2=O)cc1` (centres undefined) cannot be ordered by IC50: > 30 µM for the first, > 30 µM for the second.

First: COc1ccc(C(O)CCc2coc3cccc(OCC4CCCCC4)c3c2=O)cc1 (centres undefined)
Second: Cc1ccc(C(O)CCc2coc3cccc(OCC4CCCCC4)c3c2=O)cc1 (centres undefined)
The IC50 of the first is lower: 6.5 µM for the first, > 30 µM for the second.

First: O=C(CCc1coc2cccc(OCC3CCCCC3)c2c1=O)c1ccc(Cl)c(Cl)c1
Second: O=C(CCc1coc2cccc(OCC3CCCCC3)c2c1=O)c1ccc(Cl)cc1
The IC50 of the first is 1.6-fold higher: 22 µM for the first, 14 µM for the second.

`O=C(CCc1coc2cccc(OCC3CCCCC3)c2c1=O)c1ccc(C(F)(F)F)cc1` and `O=c1c(CCC(O)c2ccc(C(F)(F)F)cc2)coc2cccc(OCC3CCCCC3)c12` (centres undefined) cannot be ordered by IC50: > 30 µM for the first, > 30 µM for the second.

`N#Cc1ccc(C(=O)CCc2coc3cccc(OCC4CCCCC4)c3c2=O)cc1` and `COc1ccc(C(=O)CCc2coc3cccc(OCC4CCCCC4)c3c2=O)cc1` are within 1.5-fold of each other in IC50: 17 µM for the first, 16 µM for the second.

First: O=c1c(CCC(O)c2ccc(F)cc2)coc2cccc(OCC3CCCCC3)c12 (centres undefined)
Second: O=c1c(CCC(O)c2ccc(O)cc2)coc2cccc(OCC3CCCCC3)c12 (centres undefined)
The IC50 of the first is 2.2-fold higher: 9 µM for the first, 4 µM for the second. The second is the more potent here.

Going from `CC(C)(C)c1ccc(C(O)CCc2coc3cccc(OCC4CCCCC4)c3c2=O)cc1` (centres undefined) to `N#Cc1ccc(C(O)CCc2coc3cccc(OCC4CCCCC4)c3c2=O)cc1` (centres undefined), the IC50 falls from > 30 µM to 15 µM.

Compared with `O=c1c(CCC(O)c2ccc(Cl)c(Cl)c2)coc2cccc(OCC3CCCCC3)c12` (centres undefined), `O=C(CCc1coc2cccc(OCC3CCCCC3)c2c1=O)c1ccccc1` is higher in IC50: 7.9 µM for the first, > 30 µM for the second.
